{
  "source": "paper PMC5584973",
  "about": "“Characterization of novel bangle lectin from Photorhabdus asymbiotica with dual sugar-binding specificity and its effect on host immunity” (PLoS Pathogens, 2017)",
  "key": {"whole human blood": {"test_system": "whole human blood", "test": "Oxidative burst (ROS production) in human blood", "format": "cell-based", "settings": "125 μg protein", "description": "ROS production was measured according to previously published work in whole human blood within 15 min of sampling. The fresh human blood (2 μl diluted 40x in HBSS; 0.137 M NaCl, 5.4 mM KCl, 0.44 mM KH2PO4, 0.25 mM Na2HPO4, 4.2 mM NaHCO3, 1.0 mM MgSO4, 1.3 mM CaCl2, 5.55 mM glucose; pH 7.4) was mixed with 25 μl of PHL (125 μg in PBS for all experiments except dose-dependence assay where different dilutions of PHL were used), BSA (125 μg in PBS) or PBS (pH 7.4) and incubated for 10 min at 37°C or room temperature. After incubation, 25 μl of the luminophore (10 mM luminol) and 25 μl of activator zymosan A (2.5 mg/ml in HBSS) was added to activate ROS production in phagocytes. To detect the constitutive production of ROS, zymosan was replaced with the same volume of HBSS. Luminescence was recorded with a Chameleon V luminometer (Hidex, Finland) for two hours at 37°C or room temperature, and the integrals of reactions were compared. Results from experimental treatments (incubation of blood with PHL and BSA) were normalised to the integral of the oxidative response in the respective blood sample with PBS."}, "[1]": {"test_system": "phenoloxidase (PO) in haemolymph of G. mellonella", "test": "Phenoloxidase activity in insect haemolymph", "format": "biochemical, Galleria mellonella", "settings": "G. mellonella haemolymph; 475 μg for BSA, PLL", "description": "(§1) Larvae of the greater wax moth, Galleria mellonella, were reared on an artificial diet at 30 ± 1°C in constant darkness. Haemolymph was collected from the seventh instar larvae by cutting a proleg and pooling the haemolymph into a tube containing phenylthiourea (1 mg/ml in PBS; haemolymph mixed with phenylthiourea in the ratio 9:1 [v/v]) or used directly for the determination of phenoloxidase activity.\nPO activity was measured according to previously published studies. Haemolymph of G. mellonella (5 μl) was collected directly to 95 μl of PHL (475 μg in PBS for all experiments except dose-dependence assay where different dilutions of PHL were used), PLL (475 μg in PBS), BSA (475 μg in PBS) or PBS (pH 7.4) and incubated for 10 min at room temperature. After incubation, 40 μl of reaction mixture was transported to the microplate well and 160 μl of 3,4-dihydroxy-DL-phenylalanine (3 mg/ml in PBS) was added as substrate. The reaction was allowed to proceed for 30 min, and absorbance was measured in 2-min intervals at 492 nm with a Sunrise reader (Tecan, Switzerland). PO activity was expressed as linear increase in absorbance per minute. For the inhibition assay, PHL was pre-incubated with 0.2M L-Fuc or Me-α-L-Fuc for 10 min at room temperature prior to mixing with haemolymph."}, "human serum": {"test_system": "human serum", "test": "Antimicrobial activity of human serum against E. coli K12", "settings": "320 μg protein", "description": "Samples of human blood were collected from healthy donors to tubes without anticoagulant and anonymized prior to experiments. The blood was allowed to clot for at least 10 min, centrifuged at 2,000 g, 10 min to remove the clot and the collected serum was used immediately for subsequent analysis. The serum was analysed within two hours after blood collection in all experiments.\n(§2) The antimicrobial activity of human sera and insect haemolymph was measured luminometrically using the bioluminescent Gram-negative bacteria Escherichia coli K12 [59]. We have modified previously published protocol to measure the effect of PHL [60]. […] After treatment, 120 μl of bacteria working solution containing 100,000 E. coli K12 cells in PBS (pH 7.0) was added to the reaction well and the luminescence signal was recorded with a Chameleon V luminometer (Hidex, Finland) in counts per second (CPS). Reaction wells with PHL, BSA or PBS in an 80 μl volume of the same concentrations and pH as above were measured with E. coli K12 in each experiment as viability controls, not affected by human serum nor haemolymph. The luminescence produced by E. coli K12 corresponds to the bacterial viability. The antimicrobial effect of human sera and haemolymph was determined as time elapsed until the luminescence signal decreased under 1000 or 5000 CPS, respectively. […]"}, "G. mellonella haemolymph": {"test_system": "G. mellonella haemolymph", "test": "Antimicrobial activity of insect haemolymph against E. coli K12", "parameters": "species or system Galleria mellonella", "settings": "320 μg protein", "description": "as §1, §2"}},
  "data": [
    {"substance": "bovine serum albumin [BSA]", "values": [
      {"measurement": "ROS production (integral of luminescence)", "setting": "whole human blood; blood challenged with activator zymosan A", "value": "5.3±1.3 x 10^6 CPS*min"},
      {"measurement": "constitutive ROS production (integral of luminescence)", "setting": "whole human blood; whole human blood A/B/O, without activator, 2 hours", "value": "26.9±16.9 x 10^3 CPS*min"},
      {"measurement": "effect on PO activity (melanisation)", "setting": "[1]", "value": "did not have any effect"},
      {"measurement": "effect on antimicrobial activity against E. coli K12", "setting": "human serum", "value": "not able to block the effect of antimicrobial factors"},
      {"measurement": "effect on antimicrobial activity against E. coli K12", "setting": "G. mellonella haemolymph", "value": "not able to block the effect of antimicrobial factors"}
    ]}
  ]
}
